Article PMC10361207, “Cannabinoid and Opioid Receptor Affinity and Modulation of Cancer-Related Signaling Pathways of Machaeriols and Machaeridiols from Machaerium Pers” (Molecules, 2023)
≈ marks a conversion by molar mass, not a printed value. Entries after “also recorded” stand apart in the source; their conditions may differ.

Key:
μ opioid receptor = target: T1, μ opioid receptor (Homo sapiens, UniProt P35372); test: biochemical; format: binding; details: for Percent displacement, µ: 10 μM, [3H]-DAMGO; for Ki: NA = not active, read-out: μ Ki ± SEM
T1 construct: host or cells: HEK293, stably transfected; membranes
T1 sequence (P35372 whole entry): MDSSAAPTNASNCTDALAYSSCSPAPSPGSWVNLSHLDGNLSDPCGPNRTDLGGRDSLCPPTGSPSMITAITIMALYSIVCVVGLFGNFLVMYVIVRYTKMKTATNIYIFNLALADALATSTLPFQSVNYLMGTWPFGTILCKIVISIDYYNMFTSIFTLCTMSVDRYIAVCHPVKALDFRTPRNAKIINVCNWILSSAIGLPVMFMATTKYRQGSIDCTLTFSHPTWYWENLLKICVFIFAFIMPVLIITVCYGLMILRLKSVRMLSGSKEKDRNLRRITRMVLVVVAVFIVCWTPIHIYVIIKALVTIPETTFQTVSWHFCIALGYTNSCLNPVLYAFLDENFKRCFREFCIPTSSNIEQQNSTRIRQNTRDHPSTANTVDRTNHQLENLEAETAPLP
Description: (§1) HEK293 cells stably transfected with δ, κ and μ opioid subtypes were a generous gift from Roth Laboratories (University of North Carolina at Chapel Hill, N.C., USA). CB and opioid cells were maintained as previously described.
(§2) Membranes were purified by first washing the cells with cold PBS and scraping the cells into cold 50 mM Tris-HCl, pH 7.4 buffer, which was centrifuged at 5200× g for 10 min at 4 °C; next, the supernatant was discarded, and the pellet was washed with more Tris-HCl buffer, homogenized via a Sonic Dismembrator (Fisher Scientific, Pittsburgh, PA, USA) and then centrifuged at 24,000× g for 40 min at 4 °C. Finally, the pellet was re-suspended in cold 50 mM Tris-HCl buffer, aliquoted into 2 mL vials and stored at −80 °C. The total membrane protein concentration was measured using a Pierce BCA Protein Assay Kit (Thermo Scientific, Rockford, IL, USA) as per the manufacturer’s protocol.
(§3) Cannabinoid and opioid competitive radioligand binding assays were performed as previously described. Saturation experiments were performed for all the receptors to determine the receptor concentration and radioligand dissociation constant (Kd) for the membrane. Percent displacements were evaluated for all the cannabinoid and opioid subtypes with a triplicate of a fixed concentration (10 µg/mL for extracts and fractions and 10 μM for purified compounds). […] Control/test compounds were dissolved in DMSO at 10 μg/mL for extracts and fractions and 10 μM for purified compounds. […] The percent displacement was calculated to represent the ability of the samples to displace the radioligand binding for a given cannabinoid or opioid receptor subtype.
(§4) The percent displacement was calculated as follows: 100−binding of compound−nonspecific binding/specific binding×100
(§5) The competitive binding assays were performed using 12 serial dilutions of each compound ranging from 0.002 to 300 μM (control compounds were serially diluted from 10 μM to 0.06 nM). The cannabinoid assays were incubated for 90 min at 37 °C with gentle agitation. The opioid assays were incubated for 60 min at room temperature. Bound radioligands were collected on GF/C (cannabinoid) or GF/B plates (opioid) and washed 10 times with ice-cold 50 mM Tris-HCl (pH 7.4)/0.1% BSA (cannabinoid) or ice-cold 50 mM Tris-HCl (pH 7.4) (opioid). Radiodetection was measured with 50 µL (cannabinoid) or 25 µL (opioid) of MicroScint^TM-20 on a TopCount NXT HTS Microplate Scintillation Counter (PerkinElmer, Waltham, MA, USA). The IC50 and Ki values were calculated via a non-linear curve fit model using GraphPad Prism 5.0 software (GraphPad Software, Inc., San Diego, CA, USA). Each compound was tested in triplicate unless stated otherwise.

[1] = tested on: cannabinoid receptor 1 (CB1 receptor); details: earlier studies; cited from earlier work
AP-1 = test: Luciferase reporter assay, AP-1, HeLa; format: cell-based, human; details: Homo sapiens, read-out: IC50, Ap-1 (PMA)
Description: (§6) Hela cells (or T98G cells) from ATCC were plated in white opaque 384-well plates at a density of 4300 cells/well in 30 µL of growth medium (DMEM with 10% FBS and 1% Pen/Strep). The next day, the medium was aspirated and replaced with DMEM containing 1% FBS. The cells were transfected with respective plasmids using X-tremeGENE HP DNA transfection reagent (Roche). After 24 h of transfection, the test agents were added to the transfected cells, followed 30 min later by an inducing agent: interleukin 6 (IL-6) for Stat3, TGF-β for Smad, m-wnt3a for Wnt and PMA for AP-1, NF-κB, E2F, Myc, ETS, Notch and Hedgehog. No inducer was added for FoXO and pTK. After 4 h or 6 h of induction, the cells were lysed via the addition of the One-Glo luciferase assay system (Promega; Madison, WI). The light output was detected in a GloMax®-Multi+ Detection System with Instinct® Software (Promega E 8051). This luciferase assay determines if the test agent is able to inhibit the activation of cancer-related signaling pathways. In the case of FoxO, the enhanced luciferase activity via the test agent was assessed.

Smad2/3 = test: Luciferase reporter assay, Smad2/3, HeLa; format: cell-based, human; details: Homo sapiens; HeLa cells; inducer TGF-beta; dash: not inhibited by more than 40% at 50 µmol/L
Description: as §6

δ opioid receptor = target: T2, δ opioid receptor (Homo sapiens, UniProt P41143); test: Competitive radioligand binding assay, δ opioid; details: for inhibition at 10 µM: [3H]-enkephalin (DPDPE), read-out: Percent displacement, Δ; for Ki: NA = not active, read-out: Δ Ki ± SEM
T2 construct: host or cells: HEK293, stably transfected; membranes
T2 sequence (P41143 whole entry): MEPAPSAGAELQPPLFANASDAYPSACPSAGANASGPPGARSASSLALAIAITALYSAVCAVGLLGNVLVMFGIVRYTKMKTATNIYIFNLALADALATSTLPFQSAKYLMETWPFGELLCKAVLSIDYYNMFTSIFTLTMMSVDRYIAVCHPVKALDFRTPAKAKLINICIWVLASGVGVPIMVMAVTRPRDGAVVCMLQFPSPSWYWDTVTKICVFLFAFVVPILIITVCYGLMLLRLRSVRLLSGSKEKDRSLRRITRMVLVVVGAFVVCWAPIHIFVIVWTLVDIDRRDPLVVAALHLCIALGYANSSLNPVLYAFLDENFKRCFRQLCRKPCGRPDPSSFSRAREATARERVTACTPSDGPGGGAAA
Description: as §1, §2, §3, §4, §5

Myc = test: Luciferase reporter assay, Myc, HeLa; format: cell-based; details: Homo sapiens; HeLa cells; inducer PMA; dash: not inhibited by more than 40% at 50 µmol/L
Description: as §6

Hedgehog = test: Luciferase reporter assay, Hedgehog, HeLa; format: cell-based, human; details: Homo sapiens; HeLa cells; inducer PMA; dash: not inhibited by more than 40% at 50 µmol/L
Description: as §6

FoxO = test: Luciferase reporter assay, FoxO, HeLa; format: cell-based; details: Homo sapiens; HeLa cells; no inducer; dash: no activity detected; read-out: IC50, FoxO (None)
Description: as §6

CB2 receptor = target: T3, CB2 receptor (Homo sapiens, UniProt P34972); test: Competitive radioligand binding assay, CB2; details: for Percent displacement, CB2: 10 μM, [3H]-CP55,940; for Ki: * tested up to solubility limit, conc. at 33.3 μM and above precipitated, read-out: CB2 Ki ± SEM
T3 construct: expressed in transfected cells; host or cells: HEK293 (ATCC), stably transfected; membranes
T3 sequence (P34972 whole entry): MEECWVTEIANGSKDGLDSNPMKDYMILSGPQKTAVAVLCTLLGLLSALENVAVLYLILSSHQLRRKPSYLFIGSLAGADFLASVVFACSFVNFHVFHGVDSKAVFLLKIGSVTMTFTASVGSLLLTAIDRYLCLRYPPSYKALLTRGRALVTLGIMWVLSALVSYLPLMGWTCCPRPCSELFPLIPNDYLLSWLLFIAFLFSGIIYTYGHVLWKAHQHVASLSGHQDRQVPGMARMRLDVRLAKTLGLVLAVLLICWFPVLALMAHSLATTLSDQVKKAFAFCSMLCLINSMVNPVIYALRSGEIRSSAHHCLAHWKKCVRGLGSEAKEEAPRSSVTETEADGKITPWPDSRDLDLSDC
Description: as §1, §2, §3, §4, §5

CB1 receptor = target: T4, CB1 receptor (Homo sapiens, UniProt P21554); test: Competitive radioligand binding assay, CB1; details: for Percent displacement, CB1: 10 μM, [3H]-CP55,940
T4 construct: expressed in transfected cells; host or cells: HEK293 (ATCC), stably transfected; membranes
T4 sequence (P21554 whole entry): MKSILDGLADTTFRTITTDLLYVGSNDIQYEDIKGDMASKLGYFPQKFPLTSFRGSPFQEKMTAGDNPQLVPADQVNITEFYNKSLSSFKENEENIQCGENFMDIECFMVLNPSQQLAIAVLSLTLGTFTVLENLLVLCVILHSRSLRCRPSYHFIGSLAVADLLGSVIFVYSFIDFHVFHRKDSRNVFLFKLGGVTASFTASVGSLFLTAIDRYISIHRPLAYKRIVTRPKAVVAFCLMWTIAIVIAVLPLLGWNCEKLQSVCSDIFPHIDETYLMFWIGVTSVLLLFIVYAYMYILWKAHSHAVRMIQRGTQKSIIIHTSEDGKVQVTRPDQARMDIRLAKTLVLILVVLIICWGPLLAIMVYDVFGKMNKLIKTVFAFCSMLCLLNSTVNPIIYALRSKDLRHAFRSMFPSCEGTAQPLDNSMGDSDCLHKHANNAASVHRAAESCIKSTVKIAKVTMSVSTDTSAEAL
Description: as §1, §2, §3, §4, §5

E2F = test: Luciferase reporter assay, E2F, HeLa; format: cell-based, human; details: Homo sapiens, HeLa, read-out: IC50, E2F (PMA)
Description: as §6

Wnt = test: Luciferase reporter assay, Wnt, HeLa; format: cell-based; details: Homo sapiens; HeLa cells; inducer m-wnt3a; dash: not inhibited by more than 40% at 50 µmol/L
Description: as §6

Stat3 = test: Luciferase reporter assay, Stat3, HeLa; format: cell-based, human; details: Homo sapiens; HeLa cells; inducer IL6; dash: not inhibited by more than 40% at 50 µmol/L
Description: as §6

NF-κB = test: Luciferase reporter assay, NF-κB, HeLa; format: cell-based; details: Homo sapiens; HeLa cells; inducer PMA; dash: not inhibited by more than 40% at 50 µmol/L
Description: as §6

ETS = test: Luciferase reporter assay, ETS, HeLa; format: cell-based, human; details: Homo sapiens; HeLa cells; inducer PMA; dash: not inhibited by more than 40% at 50 µmol/L
Description: as §6

Notch = test: Luciferase reporter assay, Notch, HeLa; format: cell-based; details: Homo sapiens; HeLa cells; inducer PMA; dash: not inhibited by more than 40% at 50 µmol/L
Description: as §6

[2] = tested on: SK-MEL, KB, BT-549, SK-OV-3, HeLa, LLC-PK1 and Vero cells; test: Cytotoxicity, summary over the cell line panel; format: cell-based; details: highest tested concentration of 50 µg/mL; most of the cells
Description: (§7) In vitro cytotoxic activity was determined against five human cancer cell lines—malignant melanoma (SK-MEL), epidermal carcinoma oral (KB), ductal carcinoma breast (BT-549), ovary carcinoma (SKOV-3) and cervical (HeLa) cancer cells—and two non-cancerous kidney cell lines (LLC-PK1 and Vero). All cell lines were obtained from the American Type Culture Collection (ATCC, Rockville, MD, USA). Each assay was performed in 96-well tissue culture-treated microplates. The cells were seeded at a density of 25,000 cells/well and incubated for 24 h. Samples at different concentrations were added, and the cells were incubated again for 48 h. At the end of the incubation, the cell viability was determined using Neutral Red dye according to a modification of the procedure used by Borenfreund et al.. IC50 values were determined from dose–response curves of the percent growth inhibition against test concentrations. Doxorubicin was used as a positive control, while DMSO was used as the negative (vehicle) control.

[3] = Cytotoxicity, Neutral Red, SK-MEL; format: cell-based; details: human, SK-MEL malignant melanoma cells, Na = not active up to 50 µg/mL
Description: as §7

[4] = Cytotoxicity, Neutral Red, BT-549; format: cell-based; details: human, BT-549 breast ductal carcinoma cells, Na = not active up to 50 µg/mL
Description: as §7

[5] = Solubility in aqueous assay buffer; details: aqueous buffer of the radioligand binding assay
[6] = Cytotoxicity, Neutral Red, KB; format: cell-based; details: human, KB epidermal carcinoma (oral) cells, Na = not active up to 50 µg/mL
Description: as §7

Row | Structure (SMILES) | Percent displacement, µ (μ opioid receptor) [%] | Affinity for CB1 (in words) [1] | IC50 (AP-1) [µM] | IC50 (Smad2/3) [µM] | inhibition at 10 µM (δ opioid receptor) [%] | IC50 (Myc) [µM] | IC50 (Hedgehog) [µM] | IC50 (FoxO) [µM] | Percent displacement, CB2 (CB2 receptor) [%] | Percent displacement, CB1 (CB1 receptor) [%] | IC50 (E2F) [µM] | IC50 (Wnt) [µM] | IC50 (Stat3) [µM] | IC50 (NF-κB) [µM] | IC50 (ETS) [µM] | IC50 (Notch) [µM] | Cytotoxicity (in words) [2] | IC50 at 48 h [3] [µg/mL] | Ki (CB2 receptor) [µM] | Ki (μ opioid receptor) [µM] | other results
1 | C[C@H]1CC[C@H]2[C@H](C1)c1c(O)cc(/C=C/c3ccccc3)cc1OC2(C)C [compound 1, machaeriol A] | 52.9 | insignificant affinity; also recorded: did not show any affinity | 12 | 13.7 | 1.8 | 8.5 | 8.2 | > 50 | 24.4 | 18.4 | 11 | 11.9 | 14 | 10.7 | 8.5 | 7 |  |  |  |  | 
2 | C[C@H]1CC[C@H]2[C@H](C1)c1c(O)cc(-c3cc4ccccc4o3)cc1OC2(C)C [compound 2, machaeriol B] | 37.6 | insignificant affinity; also recorded: did not show any affinity | 10 | 11 | 61.7 | 7.7 | 6.9 | > 50 | 13.7 |  | 8.8 | 9.1 | 11.3 | 8.4 | 9.5 | 7.3 | inactive | > 50 |  |  | 
3 | C[C@@H]1C[C@@H]2c3c(O)cc(-c4cc5ccccc5o4)cc3OC(C)(C)[C@H]2C[C@H]1O [compound 4, machaeriol D] | 16.8 |  | 21 | 11 | 28.2 | 18 | 21 | > 50 | 81.5 | 4.5 | 24 | 20 | 22 | 20 | 25 | 25 |  |  | > 1.3 |  | Affinity for CB1 receptor (in words) (CB1 receptor; receptor displacement assay): little or no affinity
4 | C=C(C)[C@H]1CC[C@H](C)C[C@@H]1c1c(O)cc(/C=C/c2ccccc2)cc1O [compound 5, machaeridiol A] | 45.6 |  | 11 | 4.5 | 43.3 | 9.5 | 11 | > 50 | 65.4 | 7.8 | 10 | 3.5 | 10.5 | 8.1 | 11.8 | > 50 | inactive | > 50 | > 1.77 | 16.8 ± 3.31 | IC50 at 48 h [4]: > 50 µg/mL; Ki (δ opioid receptor): 9.41 ± 1.02 µM; solubility [5]: < 33.3 µM; IC50 at 48 h [6]: > 50 µg/mL
5 | C=C(C)[C@H]1CC[C@H](C)C[C@@H]1c1c(O)cc(-c2cc3ccccc3o2)cc1O [compound 7, machaeridiol C] | 31.7 |  | 6.7 | 2.5 | 26.6 | 6.8 | 8.8 | > 50 | 57.9 |  | 8.7 | > 50 | 11.2 | 2 | 7.2 | 12 | inactive | > 50 | > 1.11 | 4.01 ± 0.65 | IC50 at 48 h [4]: 47 µg/mL (≈ 130 µM); Δ pKi (δ opioid receptor): 4.91; Ki (δ opioid receptor): 12.2 ± 1.19 µM; solubility [5]: < 33.3 µM; IC50 at 48 h [6]: > 50 µg/mL
